PubChem BioAssay AID256 (DTP/NCI, 2004)
Inconclusive results and toxic doses are left out. How the source made its calls: active means survival T/C of 150% or more; inactive means T/C below 125% in these data.

Tested on: CD2F1 mice, L1210 leukemia ip, survival T/C
Experiment: NCI In Vivo Anticancer Drug Screen. Data for tumor model L1210 Leukemia (intraperitoneal) in CD2F1 (CDF1) mice
Conditions: endpoint: mean survival time, higher = longer survival
Summary of the method: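 Read-out first: treated-group measurement over vehicle-control measurement, expressed as a ratio. Animals bore a transplanted tumor line and were dosed with compound or vehicle.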

[1] = dose: 100.0 mg/kg/injection, schedule: Q04DX003 (ip), vehicle: saline with Tween-80
[2] = dose: 200.0 mg/kg/injection, schedule: Q04DX003 (ip), vehicle: saline with Tween-80
[3] = dose: 400.0 mg/kg/injection, schedule: Q04DX003 (ip), vehicle: saline with Tween-80

Measured: T/C

CCOC(=O)CC(=O)COC(=O)CC(=O)OCC
inactive: dose: 12.5 mg/kg/injection, schedule: Q01DX009 (ip), vehicle: other 96 % of control | dose: 25.0 mg/kg/injection, schedule: Q01DX009 (ip), vehicle: other 100 % of control | dose: 50.0 mg/kg/injection, schedule: Q01DX009 (ip), vehicle: other 94 % of control | dose: 100.0 mg/kg/injection, schedule: Q01DX009 (ip), vehicle: other 97 % of control | dose: 200.0 mg/kg/injection, schedule: Q01DX009 (ip), vehicle: other 97 % of control

C=CCCCCCCCCC(=O)NCC1CCCCO1 (stereo unspecified)
inactive: [1] 94 % of control | [2] 98 % of control | [3] 93 % of control

O=C1c2ccccc2C(=O)N1C1C=CC=CC=C1
inactive: dose: 100.0 mg/kg/injection, schedule: Q01DX009 (ip), vehicle: saline with Tween-80 95 % of control | [1] 104 % of control | dose: 200.0 mg/kg/injection, schedule: Q01DX009 (ip), vehicle: saline with Tween-80 93 % of control | [2] 97 % of control | dose: 400.0 mg/kg/injection, schedule: Q01DX009 (ip), vehicle: saline with Tween-80 96 % of control | [3] 97 % of control

CC1C=NNC1=O (stereo unspecified)
inactive: dose: 8.0 mg/kg/injection, schedule: Q03HX016 (ip), vehicle: saline 101 % of control | dose: 8.0 mg/kg/injection, schedule: Q03HX024 (ip), vehicle: saline 96 % of control | dose: 12.5 mg/kg/injection, schedule: Q01DX009 (ip), vehicle: Klucel (hydroxypropylcellulose) (HPC) 97 % of control | dose: 16.0 mg/kg/injection, schedule: Q03HX016 (ip), vehicle: saline 98 % of control | dose: 16.0 mg/kg/injection, schedule: Q03HX024 (ip), vehicle: saline 100 % of control | dose: 25.0 mg/kg/injection, schedule: Q01DX009 (ip), vehicle: Klucel (hydroxypropylcellulose) (HPC) 110 % of control | dose: 32.0 mg/kg/injection, schedule: Q03HX016 (ip), vehicle: saline 112 % of control | dose: 32.0 mg/kg/injection, schedule: Q03HX024 (ip), vehicle: saline 116 % of control | dose: 50.0 mg/kg/injection, schedule: Q01DX009 (ip), vehicle: Klucel (hydroxypropylcellulose) (HPC) 111 % of control | dose: 64.0 mg/kg/injection, schedule: Q01DX009 (ip), vehicle: saline 109 % of control | dose: 64.0 mg/kg/injection, schedule: Q03HX016 (ip), vehicle: saline 110 % of control | dose: 64.0 mg/kg/injection, schedule: Q03HX024 (ip), vehicle: saline 108 % of control | dose: 64.0 mg/kg/injection, schedule: Q04DX003 (ip), vehicle: saline 103 % of control | dose: 64.0 mg/kg/injection, schedule: Q08DX002 (ip), vehicle: saline 102 % of control | dose: 100.0 mg/kg/injection, schedule: Q01DX009 (ip), vehicle: saline 117 % of control | dose: 128.0 mg/kg/injection, schedule: Q01DX009 (ip), vehicle: saline 118 % of control | dose: 128.0 mg/kg/injection, schedule: Q04DX003 (ip), vehicle: saline 103 % of control | dose: 128.0 mg/kg/injection, schedule: Q08DX002 (ip), vehicle: saline 101 % of control | dose: 200.0 mg/kg/injection, schedule: Q01DX009 (ip), vehicle: saline 123 % of control | dose: 256.0 mg/kg/injection, schedule: Q04DX003 (ip), vehicle: saline 110 % of control | dose: 256.0 mg/kg/injection, schedule: Q08DX002 (ip), vehicle: saline 102 % of control | dose: 512.0 mg/kg/injection, schedule: Q04DX003 (ip), vehicle: saline 103 % of control | dose: 512.0 mg/kg/injection, schedule: Q08DX002 (ip), vehicle: saline 106 % of control
active: dose: 400.0 mg/kg/injection, schedule: Q01DX009 (ip), vehicle: Klucel (hydroxypropylcellulose) (HPC) 155 % of control

C[N+]1=C(c2ccccc2)CCC(C(C)(C)C)C1 (stereo unspecified)
inactive: dose: 37.5 mg/kg/injection, schedule: Q04DX003 (ip), vehicle: saline 102 % of control | dose: 75.0 mg/kg/injection, schedule: Q01DX001 (ip), vehicle: saline 95 % of control | dose: 75.0 mg/kg/injection, schedule: Q04DX003 (ip), vehicle: saline 96 % of control | dose: 150.0 mg/kg/injection, schedule: Q01DX001 (ip), vehicle: saline 92 % of control | dose: 150.0 mg/kg/injection, schedule: Q04DX003 (ip), vehicle: saline 100 % of control

O=C1CC(c2ccccc2)CC(=O)O1
inactive: [1] 102 % of control | [2] 100 % of control | [3] 92 % of control
